The subject of one experiment is IRAK1/4. The following applies: 10 μM; cited from earlier work.
The subject of experiment [1] is p53, DNA damage response (γH2AX). The experiment is described as follows: p53 and DNA damage response activation in RKO cells (Western blot, primary screen and dose response). The following applies: 16 hours, Western blot, average value. The class given is cell-based. On the procedure: (§1) Primary Screen in RKO cells for compounds having typical CKIα inhibitory activity (β-catenin and p53 stabilization and histone H2AX phosphorylation; see Elyada et al, Nature 2011 Feb. 17; 470(7334):409-13; Pribluda et al, Cancer Cell 2013 Aug. 12; 24(2):242-56). RKO colorectal cells were incubated with 10 μM of each of the compounds for 16 hours at 37° C. Cells were washed with PBS and cell pellets were incubated with ice cold protein lysis buffer containing protease inhibitor cocktail (1/200; Calbiochem) and phosphatase inhibitors (20 mM p-nitrophenyl phosphate (PNPP), 20 mM β-glycerophosphate and 300 nM okadaic acid). Western blot analysis was performed by means of standard techniques. Blots were incubated with antibodies detecting β-catenin (1/2,500; BD Transduction), p53 (DO-1&1801 hybridoma mix; dilution of 1:20 of supernatants from each), CKIα (C-19; 1/1,000; Santa Cruz Biotechnology) and phospho-histoneH2AX (S139; 1/1,000; Millipore). Secondary antibodies were HRP-linked goat anti-mouse, goat anti-rabbit and rabbit anti-goat antibodies (all 1/10,000; Jackson). Blots were developed using ECL (GE Healthcare).
(§2) Active compounds were further analyzed in a dose-response experiment (FIGS. 1A and 1B). Similar to the primary screen, RKO cells were incubated with descending concentrations of each of the active compounds for 16 hours at 37° C. Cell extract isolation and Western Blot analysis were similar to the primary screen.
(§3) Table 1 provides quantified information for compounds of the invention in activation of p53 and DNA damage response (DDR) and β-catenin stabilization as an indicator of Wnt pathway activation. p53 activation was determined according to the degree of protein stabilization in several Western blot assays (Western blot examples are shown in FIGS. 1A and 1B). […] In contrast, A35 started stabilizing p53 at […], with maximal stabilization at […] (FIG. 1A, upper right panel) and thus received an average value of +++ for p53 activation.
On the technique in general: In western blotting, separated proteins are transferred to a membrane and probed.

Another experiment deals with Wnt/β-catenin. The experiment in a line: β-catenin stabilization (Wnt pathway activation) in RKO cells (Western blot). The class given is cell-based. The following applies: 16 hours, Western blot. The method, then: as §1, §2, §3
In experiment [2] the target is T1, IRAK1 (Homo sapiens, UniProt P51617).
T1 construct: RKO cells were incubated for 16 hours at 37° C. with the indicated concentrations of compounds; endogenous in cells; host or cells: RKO cells, stimulated with TNFα
T1 sequence (P51617 whole entry): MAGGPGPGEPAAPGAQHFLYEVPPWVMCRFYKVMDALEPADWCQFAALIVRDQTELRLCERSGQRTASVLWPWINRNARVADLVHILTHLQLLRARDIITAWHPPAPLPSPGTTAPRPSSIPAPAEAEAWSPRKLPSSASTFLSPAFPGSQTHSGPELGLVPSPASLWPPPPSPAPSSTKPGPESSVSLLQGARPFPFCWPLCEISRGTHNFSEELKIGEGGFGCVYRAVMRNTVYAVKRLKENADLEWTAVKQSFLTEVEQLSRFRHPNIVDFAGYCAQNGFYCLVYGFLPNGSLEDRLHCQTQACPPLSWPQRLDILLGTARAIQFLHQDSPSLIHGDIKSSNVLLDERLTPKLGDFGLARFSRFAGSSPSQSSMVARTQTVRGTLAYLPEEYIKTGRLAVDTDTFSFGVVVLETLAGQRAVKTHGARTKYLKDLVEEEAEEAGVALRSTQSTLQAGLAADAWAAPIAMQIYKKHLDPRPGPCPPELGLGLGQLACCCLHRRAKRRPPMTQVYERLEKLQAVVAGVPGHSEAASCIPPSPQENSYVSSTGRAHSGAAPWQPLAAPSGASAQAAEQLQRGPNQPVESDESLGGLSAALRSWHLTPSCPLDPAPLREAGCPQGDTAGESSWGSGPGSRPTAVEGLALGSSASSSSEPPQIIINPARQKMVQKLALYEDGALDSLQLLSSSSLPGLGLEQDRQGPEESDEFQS
The experiment in a line: Kd measurements for the interaction with IRAK1. Format: binding.

Experiment [3] concerns the target T1, IRAK1. The experiment in a line: IRAK1 inhibition in RKO cells treated with TNFα (Western blot). The class given is cell-based. On the procedure:
(§4) Cells were harvested and analyzed by Western blot. Blots were incubated with the following antibodies: Phospho-IRAK1 (Thr209), (A1074, AssayBiothechnology; 1/1,000), Phospho-IKKα/β (Ser176/180) (16A6, Cell Signaling; 1/1,000), IKKα (2682, cell signaling; 1/1,1000), IKK β (2370, cell signaling; 1/1,1000), Phospho-c-Jun (Ser 63) (9261, cell signaling; 1/1,1000), p53 (DO-1&1801 hybridoma mix; dilution of 1:20 of supernatants from each), CKIα (C-19; 1/1,000; Santa Cruz Biotechnology) and phospho-histoneH2AX (S139; 1/1,000; Millipore). Secondary antibodies were HRP-linked goat anti-mouse, goat anti-rabbit and rabbit anti-goat antibodies (all 1/10,000; Jackson). Inhibition of Phospho-IRAK1, Phospho-IKKα/β and Phospho-c-Jun indicate IRAK1 inhibition. p53 stabilization and phosphorylation of H2AX (γH2AX), a marker of DNA damage, indicative of CKIα kinase inhibition. CKIα protein levels serves as a loading control.
as §4, with “IRAK1 Inhibition with compounds of the invention. RKO cells were incubated for 16 hours at 37° C. with the indicated concentrations of compounds of the invention A51 (1 μM) and A14 (2 μM) (FIG. 10). At the indicated time points, RKO were treated with TNFα (100 units/ml). Cells” for “Cells”, “IKKβ” for “IKK β”, “Blots were developed using ECL (GE Healthcare). […] Also shown is” for “Inhibition of Phospho-IRAK1, Phospho-IKKα/β and Phospho-c-Jun indicate IRAK1 inhibition.”

The next experiment has as its system AML mice (MLL-AF9). The experiment in a line: MLL-AF9 acute myeloid leukemia (AML) mouse model. Format: in vivo. The method, then:
Generation of a mouse model of acute myeloid leukemia (AML) (FIG. 6) and treatment with the CKIα inhibitor A14 (FIGS. 7, 8 and 9) or A51 (FIGS. 11 and 12). To generate the MLL-AF9 Acute myeloid leukemia (AML) model, bone marrow (BM) cells from 10 week old wild type mouse were extracted and enriched for cKit expressing cells (EasySep #18757) and incubated overnight in RPMI supplemented with 15% FCS L-Glutamine, Pen/Strep (Biological Industries, Israel) and stem cell factor (SCF), IL-3, IL-6 and TPO (Peprotech). The culture was infected with MSCV-MLL-AF9-IRES-GFP retrovirus construct containing supernatant medium for 4 hours, then growth medium was added and infected cells were incubated at 37° C. for additional 24 h. The culture was then injected I.V. into sub lethally irradiated (500 rad) mice. Upon detectable steady increase of GFP expressing cells in the mice peripheral blood (checked by FACS analysis) and rise in leukocyte numbers and immature cells (detected by Wright-Giemsa stained blood films), mice were sacrificed and their BM was transferred (1st BMT) to sublethally irradiated WT hosts. Upon emergence of AML disease mice were sacrificed and 50,000 BM cells were transplanted (2nd BMT) into WT host mice. GFP expressing cells were monitored in the peripheral blood and upon detecting >10% GFP^+ in PB (day 11 after BMT) mice were treated with A14 inhibitor (FIG. 7A). A14 was administered by oral gavage once a day at a dose of 20 mg/kg for 3 days followed by 10 mg/kg/day for 6 more days. The inhibitor was dissolved in 1% methyl cellulose with 0.1% Tween 80 and 0.2% Poly-ethylene glycol (Vehicle). Control mice were treated with the vehicle only. Mice were monitored daily for cachexia, lethargy, and ruff coats, and moribund mice were sacrificed. For a single dose experiment (FIG. 11A) A51 was administered by oral gavage at a single dose of 20 mg/kg and mice were sacrificed 16 hours following treatment.
Complete blood counts. Peripheral venous blood was obtained from the mouse facial vein using standard techniques and analyzed using the auto hematology analyzer BC-2800 (Mindray) per manufacturer's instructions.
Single-dose treatment effect of a CKI inhibitor in AML mice and PD-L1 expression. AML mice were prepared by inoculating MLL-AF9 oncogene-transduced bone marrow cells to C57/BL6 mice. MLL-AF9 fusion represents one of a poor prognosis human AML induced by chromosomal translocation. 30 days after leukemia inoculation, the recipient mice have high white blood cells (WBC) counts (×10 higher than a normal mouse), and harbor >95% leukemia blasts in the bone marrow and 50% of the peripheral WBC in these mice are AML blasts. These mice have splenomegaly and their bones are pale and fragile due to the acute leukemia (FIG. 12).

Where [4] appears, read: oral single dose 20 mg/Kg, 16 hrs.

Where only a bound is given, the exact number is not on record here.

As usually defined, the Kd is a measure of binding affinity in units of concentration. As usually defined, the inhibition is how much of the control response was suppressed.

In the case of `O=C(Nc1nc2ccccc2n1CCN1CCOCC1)c1cccc([N+](=O)[O-])c1` [Amgen's IRAK1-4 inhibitor], the “inhibition of IRAK1/4 in cell lines” value with IRAK1/4 is 70%.
Regarding `Cn1ncc(-c2nc(N[C@H]3CC[C@H](N)CC3)ncc2Cl)c1CC1CC1` [Compound A51, (1R, 4R)—N^1-(5-chloro-4-(5-(cyclopropylmethyl)-1-methyl-1H-pyrazol-4-yl)pyrimidin-2-yl)cyclohexane-1,4-diamine], in experiment [1], the “DDR & p53 activity” value is “++++ (++++ indicates maximal activation of p53 and DDR at >0.5 μM)”. Moreover, the β-Catenin activity entry with Wnt/β-catenin is on record as “+++ (+++ indicates maximal β-catenin or p53 stabilization at >2 μM)”. The same compound registered a dissociation constant Kd on IRAK1 [2] of 2.9 nM. Further, on IRAK1 [3] (RKO cells, Western blot, A51 1 μM, A14 2 μM, 16 hours, TNFα 100 units/ml), the “IRAK1 activation and activation of the IRAK1 target IKK (in words)” value is reported as “inhibition of IRAK1 activation”. For the same compound, the inhibition at 1 µM on IRAK1 [3] (RKO, read-out: inhibition of phospho-(active) IRAK1) stood at 100%. In the experiment with AML mice (MLL-AF9) (setting [4]), the “leukemic spleen size (in words)” value is recorded as “shrinking of the leukemic spleen”, the “reduction of proportion of leukemic blasts (GFP+ cells) in the blood” value was greater than 90%, the “reduction of proportion of leukemic blasts (GFP+ cells) in the bone marrow” value was found to be 50% and the “total leukemia cells in the blood (in words)” value is on record as “massive reduction”. Further, the “bone colour (in words)” value in the experiment with AML mice (MLL-AF9) (single dose 20 mg/Kg) is given as “Opaque bones turned to normal color”.

These data come from patent US12514859B2, “Pyrazole pyrimidine derivative and uses thereof” (Yissum Research Development Company of the Hebrew …, priority 2015, dated 2026).
